Assay results: patent US20040242676A1, “Method of mitigating the adverse effects of IL-2” (priority 2003, published 2004)
Like-named read-outs stand apart in the source and are kept apart here.

Tests used:
[1] = Dissolution of LMP and HMP forms as a function of pH; type: physicochemical; conditions: for Dissolution (%): 10 mg in 100 mL water, 37° C., 15 mins; for AUC of dissolution over the range of pH: pH 1.2 to 7.5
Description: The LMP and HMP forms of the LBA of formula (I) were prepared in accordance with a process described in Examples 1 and 2, respectively. The pH of each of multiple 100 mL aliquots of distilled water was adjusted within the range of 1.2 to 7.5. Ten mg of either the LMP or HMP forms, finely ground with mortar and pestle, were placed into separate aliquots and then stirred at 37° C. for 15 mins. The dissolution characteristic of the LMP and HMP forms was measured at each pH and expressed as a percentage of the whole. Areas-under-the curve (AUCS) were calculated over the range of pH values tested. [Since the ordinate values are expressed as % dissolution and the abscissa values are expressed as pH units, then the units of AUC is expressed as the product of % dissolution times pH units or, alternatively, “%·log[[…]]” Results appear below in Table 2.

[2] = Pharmacokinetics of suspension and solution in the rat; type: in vivo; conditions: gavage, 100 mg/kg; for AUC: trapezoidal rule
Description: Adult male Munich-Wistar rats (250 g, Charles River Laboratories) received by gavage a suspension of either HMP or LMP LBA in polyethylene glycol 400 at 100 mg/kg or 100 mg/kg of an equal mass of the HMP and LMP forms in solution at pH 7.5. Non-compartmental pharmacokinetics were determined and appear below in Table 3.

Human subjects = test: Effect of LMP LBA and HMP LBA on hepatotoxicity in humans (alanine aminotransferase); type: in vivo
Description: Human subjects between the ages of 18 and 70 received every 8 hours single capsules containing either the LMP LBA or the HMP LBA form. The drug is prepared as a fine powder and then mixed as drug/excipients at 20/80 wt %/wt % where excipients consist of equal weights of lactose and hydroxypropyl methylcellulose. The intention of dosing was to examine the effect of increasing doses of each LBA on safety and tolerability. Standard laboratory parameters were measured, including complete blood count, chemistry panel 20, urinary analysis, and electrocardiogram (ECG). Measurements of the laboratory tests were made daily except for the ECG which was measured at baseline, 1 week, and 1 week after cessation of dosing. There were no differences in the safety profiles with the exception of liver function testing.
Because the liver plays a central role in the metabolism of drugs, the effect a drug has on liver function is an important effect to consider. An indicator of an adverse effect that a drug may have on the liver is the peak change from baseline of alanine aminotransferase (ALT). […] A significant increase of ALT is generally an increase of more than 2.

LTB4 chemotaxis = test: Inhibition of LTB4 chemotaxis; type: cell-based
Excerpt: (§1) A series of tests were run to determine the in vitro and in vivo pharmacology properties of the HMP LBA of this invention. A summary of the results of these tests appear below.
Inhibition of LTB4 chemotaxis

[3] = system: human neutrophil adhesion to LTB4-stimulated umbilical vein endothelial cells; test: Inhibition of human neutrophil adhesion to LTB4-stimulated umbilical vein endothelial cells; type: cell-based
Excerpt: as §1
Inhibition of human neutrophil adhesion to LTB4-stimulated umbilical vein endothelial cells

[4] = system: LTB4-induced neutrophil granulation; test: Inhibition of LTB4-induced neutrophil granulation; type: cell-based
Excerpt: as §1
Inhibition of LTB4-induced neutrophil granulation

LTB4 synthesis = test: Inhibition of LTB4 synthesis; type: biochemical
Excerpt: as §1
Inhibition of LTB4 synthesis

[5] = system: LTA4 conversion into LTB4; test: Inhibition of LTA4 conversion into LTB4; type: biochemical
Excerpt: as §1
Inhibition of LTA4 conversion into LTB4

guinea pigs [6] = test: Inhibition of LTB4 chemotaxis in guinea pigs; type: in vivo, guinea pig; conditions: Cavia porcellus, po; i.g.
Excerpt: as §1
Inhibition of LTB4 chemotaxis in guinea pigs

guinea pigs [7] = test: Inhibition of 12 (R)-HETE in guinea pigs; type: in vivo, guinea pig; conditions: Cavia porcellus, po; i.g.
Excerpt: as §1
Inhibition of 12 (R)—HETE in guinea pigs

rats and guinea pig = test: Inhibition of acetic acid colonic inflammation in rats and guinea pig; type: in vivo; conditions: po; i.g.
Excerpt: as §1
Inhibition of acetic acid colonic inflammation in rats and guinea pig

guinea pig ear = test: Inhibition of calcium ionophore dermal inflammation in the guinea pig ear; conditions: in vivo
Excerpt: as §1
Inhibition of calcium ionophore dermal inflammation in the guinea pig ear

[8] = system: patients with metastatic renal carcinoma; conditions: for number of doses of IL-2 that could be tolerated, as related to the dose of the LBA: FIG. 2, p<0.05; for number of doses of IL-2 that could be tolerated, as related to the plasma level of the LBA: FIG. 3, p<0.03
Description: PROLEUKIN® IL-2 is administered to the patient in accordance with the labeling instructions (in brief, 600,000 IU/kg every 8 hours as tolerated). […] Therefore, 16 doses of the LA compound would be given during this same five-day period. […] These two courses constitute one cycle of IL-2.
Accordingly, the number of doses of IL-2 that can be given constitutes the single best measure of the tolerability of IL-2. The response rate, as measured by tumor shrinkage or disappearance, is the measure of antitumor activity.
The scheduled dosing regimen of IL-2 was 3× daily for a total of 14 doses over 5 days, followed by 9 days without IL-2, and then a repeat of the initial 14 doses over 5 days. The dose of IL-2 was 600,000 IU/kg administered intravenously every 8 hours.

Compound: CCCc1c(OCCCOc2ccc(C(C)=O)c(OC)c2CCC)ccc2c1OC(C(=O)O)CC2 (racemic) [LMP LBA, (±)-7-[3-(4-acetyl-3-methoxy-2-propylphenoxy)-propoxy]3,4-dihydro-8-propyl-2H-1-benzopyran-2-carboxylic acid]
- Dissolution (%) ([1]; pH 1.2): 0%
- AUC of dissolution over the range of pH ([1]; listed as LMP): 284 %·pH units
- Dissolution (%) ([1]; pH 3.0): 0%
- Dissolution (%) ([1]; pH 4.5): 0%
- Dissolution (%) ([1]; pH 5.0, listed as LMP): 20%
- Dissolution (%) ([1]; pH 5.5, listed as LMP): 48%
- Dissolution (%) ([1]; pH 6.0, listed as LMP): 82%
- Dissolution (%) ([1]; pH 6.5, listed as LMP): 96%
- Dissolution (%) ([1]; pH 7.0, listed as LMP): 99%
- Dissolution (%) ([1]; pH 7.5): 100%
- Tmax ([2]; listed as LMP): 0.7 h
- Cmax ([2]; male, Munich-Wistar, blood, po, read-out: Cmax): 10.4 µg/mL
- AUC ([2]; male, Munich-Wistar, blood, po, read-out: AUC): 57 µg·h/mL
- tolerability (hepatotoxicity) (Human subjects; 150 mg daily for up to 14 consecutive days (total target dose 2100 mg)): not well tolerated
- subjects withdrawn from dosing because of adverse changes in alanine aminotransferase levels (Human subjects; 60 and 150 mg/day): 6/6
- Peak Change from Baseline Alanine Aminotransferase (multiple) (Human subjects; daily dose 60 mg, cumulative 300 mg over 5 days): 2.5 multiple
- Peak Change from Baseline Alanine Aminotransferase (multiple) (Human subjects; daily dose 150 mg, cumulative 750 mg over 5 days, listed as LMP): 2.5 multiple

Compound: CCCc1c(OCCCOc2ccc(C(C)=O)c(OC)c2CCC)ccc2c1OC(C(=O)O)CC2 (racemic) [HMP LBA, (±) 7-[3-(4-acetyl-3-methoxy-2-propylphenoxy)propoxy]-3,4-dihydro-8-propyl-2H-1-benzopyran-2-carboxylic acid]
- AUC of dissolution over the range of pH ([1]; listed as HMP): 163 %·pH units
- Dissolution (%) ([1]; pH 5.0, listed as HMP): 6%
- Dissolution (%) ([1]; pH 5.5, listed as HMP): 18%
- Dissolution (%) ([1]; pH 6.0, listed as HMP): 29%
- Dissolution (%) ([1]; pH 6.5, listed as HMP): 50%
- Dissolution (%) ([1]; pH 7.0, listed as HMP): 81%
- Cmax ([2]; listed as HMP): 13.0 µg/mL
- Tmax ([2]; listed as HMP): 2.0 h
- AUC ([2]; listed as HMP): 65 µg·h/mL
- Peak Change from Baseline Alanine Aminotransferase (multiple) (Human subjects; daily dose 75 mg, cumulative 375 mg over 5 days): 1 multiple
- Peak Change from Baseline Alanine Aminotransferase (multiple) (Human subjects; daily dose 100 mg, cumulative 500 mg over 5 days): 1 multiple
- Peak Change from Baseline Alanine Aminotransferase (multiple) (Human subjects; daily dose 125 mg, cumulative 625 mg over 5 days): 2 multiple
- Peak Change from Baseline Alanine Aminotransferase (multiple) (Human subjects; daily dose 150 mg, cumulative 750 mg over 5 days, listed as HMP): 2 multiple
- Peak Change from Baseline Alanine Aminotransferase (multiple) (Human subjects; daily dose 175 mg, cumulative 875 mg over 5 days): 2 multiple
- Peak Change from Baseline Alanine Aminotransferase (multiple) (Human subjects; daily dose 200 mg, cumulative 1000 mg over 5 days): 1 multiple
- Peak Change from Baseline Alanine Aminotransferase (multiple) (Human subjects; daily dose 225 mg, cumulative 1125 mg over 5 days): 0 multiple
- Peak Change from Baseline Alanine Aminotransferase (multiple) (Human subjects; daily dose 300 mg, cumulative 1500 mg over 5 days): −.5 multiple
- Peak Change from Baseline Alanine Aminotransferase (multiple) (Human subjects; daily dose 450 mg, cumulative 2250 mg over 5 days): 0 multiple
- Peak Change from Baseline Alanine Aminotransferase (multiple) (Human subjects; daily dose 600 mg, cumulative 3000 mg over 5 days): 2 multiple
- Peak Change from Baseline Alanine Aminotransferase (multiple) (Human subjects; daily dose 750 mg, cumulative 3750 mg over 5 days): 1 multiple
- Peak Change from Baseline Alanine Aminotransferase (multiple) (Human subjects; daily dose 900 mg, cumulative 4500 mg over 5 days): 1 multiple
- doses administered without excessive hepatotoxicity (Human subjects; humans, 4500 mg over five days): up to 900 mg/day
- tolerability (Human subjects; intermittent dosing: 5 days, 9 days without exposure, 5 days, total exposure 9000 mg): improved even further
- Inhibition of LTB4 chemotaxis, range (LTB4 chemotaxis): 0.3 to 3.0 µM
- Inhibition of human neutrophil adhesion to LTB4-stimulated umbilical vein endothelial cells, range [3]: 0.3 to 1.0 µM
- Inhibition of LTB4-induced neutrophil granulation, range [4]: 1 to 3 µM
- IC50 (LTB4 synthesis): 2.1 µM
- IC50 [5]: 20 µM
- ED50 (guinea pigs [6]): 0.6 mg/kg
- ED50 (guinea pigs [7]): 20 mg/kg
- ED50 (rats and guinea pig): 20 mg/kg
- ED50, inhibition of calcium ionophore dermal inflammation in the guinea pig ear (guinea pig ear): 0.7 mg/ear
- number of doses of IL-2 that could be tolerated, as related to the dose of the LBA ([8]; FIG. 4): rose
- number of doses of IL-2 that could be tolerated, as related to the dose of the LBA ([8]; FIG. 4, listed as LBA): increases
- number of doses of IL-2 that could be tolerated, as related to the plasma level of the LBA [8]: rose
- number of doses of IL-2 that could be tolerated, as related to the plasma level of the LBA ([8]; listed as LBA): increases
- frequency of serious IL-2 events ([8]; HMP LBA doses at or above 250 mg/day, 5/27): 19%
- frequency of serious IL-2 events ([8]; HMP LBA doses of <250 mg/day, 13 events in 35 patients): 38%
- frequency of IL-2 induced serious adverse clinical events as total exposure to IL-2 increased ([8]; coadministration of HMP LBA, FIG. 4): significantly declined
- response rate to treatment with IL-2 under LBA treatment ([8]; human, in vivo): not diminished
- tolerability ([8]; oral, 75-900 mg/day, co-administered with IL-2): well tolerated
- maximal tolerated dose ([8]; oral, co-administered with IL-2, 62 subjects): > 900 mg/day
- concentration in the plasma as a function of dose ([8]; p<0.02): rose linearly in a dose-proportional manner

Compound: des-alanyl-1, serine-125 human interleukin-2 [IL-2]
- objective response rate ([8]; patients with metastatic renal cell cancer, after a single course of treatment with IL-2): 10-15%
